{"source": "patent US20240009174A1", "about": "“METHODS FOR DISRUPTING MITOCHONDRIAL UNFOLDED PROTEIN RESPONSE” (Health Research, Inc., priority 2020, published 2024)", "key": {"[1]": {"test_system": "PCa cells (LNCaP and PC-3)", "assay": "Cell death / apoptosis in PCa cells (Annexin V FITC/PI flow cytometry)", "type": "cell-based", "protocol": "FIG. 6. Pharmacological inhibition of HSP60-ClpP interaction induces UPR^mt and PCa cell death. (A) Docking of DCEM1 into apical domain of HSP60. (B) LNCaP and PC-3 cells were treated with DCEM1 for 24 hours and HSP60-ClpP interaction was analyzed by co-immunoprecipitation assay. (C) LNCaP and PC-3 cells were treated with DCEM1 for 24 hours and mitoROS levels were analyzed by flow cytometry using mitoSOX dye. (D) LNCaP and PC-3 cells were treated with DCEM1 for 24 hours and poly-Ub protein levels were analyzed by western blotting. (E) LNCaP and PC-3 cells were treated with DCEM1 for 24 and 48 hours and apoptotic cell populations were analyzed by flow cytometry using Annexin V FITC/PI method as explained in materials and methods. In (E) top panel, the bars in each series from left to right are control, 5, 10, and 20, and in (E) bottom panel, the bars in each series from left to right are DMSO, 5, 10, and 20. (F) LNCaP and PC-3 cells were treated with DCEM1 for 24 and 48 hours and lysates were prepared and analyzed for DEVDase activity using specific peptide substrate. […] (G) LNCaP and PC-3 cells were pre-treated with SKQ1 followed by DCEM1 treatment and analyzed for cell viability by MTT assay. (H) LNCaP and PC-3 cells were treated with either DCEM1 or H2O2 (200 μM) for 24 hours and total DNA were isolated and analyzed for mtDNA damage as described in materials and methods. […]"}, "[2]": {"test_system": "PC-3 (AR negative) xenografts", "assay": "PC-3 xenograft in SCID mice", "type": "in vivo", "conditions": "60 mg/kg bw", "protocol": "FIG. 8. Pharmacological inhibition of HSP60-ClpP inhibit oncogenic signaling and PCa tumor growth in vivo. (A) LNCaP, PC-3 and 22RV1 cells were treated with DCEM1 and analyzed for c-Myc and EZH2 protein expression after 24 hours of treatment. (B) LNCaP, 22RV1 and VCaP cells were treated with DCEM1 and analyzed for AR and PSA protein expression after 24 hours of treatment. (C-D) 22RV1 cells (1×10^6 cells) were mixed with matrigel (50:50 v/v) and injected into each flank of SCID mice and treated with DCEM1 (60 mg/kg bw) through IP route twice weekly and tumors were harvested, photographed (C) and weighed (D) at 30 days. (E) DEVDase activity were analyzed in 22RV1 xenograft tumor tissue following DCEM1 treatment and represented as fold change compared to control. (F) 22RV1 xenograft tissue were sectioned and expression of ki67, c-Myc and EZH2 proteins were analyzed by Immunohistochemistry as described in material and methods. (G-H) PC-3 cells (1×10^6 cells) were mixed with matrigel (50:50 v/v) and injected into each flank of SCID mice and treated with DCEM1 (60 mg/kg bw) through IP route twice weekly and tumors were harvested, photographed (G) and weighed (H) at 35 days. (I) DEVDase activity were analyzed in PC-3 xenograft tumor tissue following DCEM1 treatment and represented as fold change compared to control. (J) PC-3 xenograft tumor tissue were fixed and sections were used for in situ PLA to analyze HSP60-ClpP interaction in these tissue samples. […] All animals were sacrificed at 16 weeks of age and prostate tissue and tumors were harvested, whole cell lysate were prepared and analyzed for HSP60 and ClpP expression (N); c-Myc and EZH2 expression (0) and SYP and CK 8/18 expression (P) by immunoblotting. […]\nAblation of HSP60-ClpP interaction by DCEM1 downregulates c-Myc, EZH2 and AR as well as inhibits tumor growth in vivo. […] The effect of DCEM1 on 22RV1 (AR positive) and PC-3 (AR negative) xenografts growth in SCID mice was analyzed. […]"}, "[3]": {"test_system": "RWPE-1 cells", "assay": "Apoptosis in non-carcinoma RWPE-1 cells (Annexin V/PI labeling)", "type": "cell-based", "conditions": "24 h and 48 h, doses 5, 10, 20", "protocol": "FIG. 9. Structure of DCEM1 is shown in (A). (B) Human prostate epithelial non carcinoma RWPE-1 cells were treated with DCEM1 at indicated doses for 24 h and 48 h and apoptotic cells were quantified by Annexin V/PI labeling as described in material and methods. In (B), the bars in each series from left to right are DMSO, 5, 10, and 20.\n(§1) Identification of novel inhibitor of HSP60-ClpP interaction that disrupts UPR^mt function and induces PCa cell death. Having shown that two arms of UPR^mt, HSP60 chaperonin and ClpP protease interact and play critical role in PCa cell survival, an in silico analysis was performed and a small molecule library (developed by Enamine Ltd) was screened to identify drugs targeting the apical domain of HSP60 critical for its interaction with ClpP. 9 compounds (A-I) were identified and screened for their cell death inducing potential in PCa cells (data not shown). […] Colony forming ability of PCa cells was inhibited by DCEM1 treatment (data not shown)."}, "[4]": {"test_system": "PCa cells", "assay": "Colony forming ability of PCa cells", "type": "cell-based", "conditions": "data not shown", "protocol": "as §1"}}}
{"molecule": "CCOc1cc(CNCc2nc3ccccc3[nH]2)ccc1OCc1cccs1", "note": "[DCEM1]", "values": [{"measurement": "apoptotic cell death", "setting": "[1]; LNCaP and PC-3 cells, 24 and 48 hours, Annexin V FITC/PI", "value": "apoptotic cell death was observed"}, {"measurement": "cell death in PCa cells", "setting": "[1]; PCa cells", "value": "robust cell death"}, {"measurement": "HSP60-ClpP interaction by in situ PLA in PC-3 xenograft tumors", "setting": "[2]", "value": "inhibited HSP60-ClpP interaction"}, {"measurement": "caspase-3 (DEVDase) activity in PC-3 xenograft tumors", "setting": "[2]; IP, twice weekly", "value": "induced"}, {"measurement": "tumor volume and weight, PC-3 xenografts", "setting": "[2]; IP, twice weekly, 35 days", "value": "effectively inhibited"}, {"measurement": "effect (cell death/apoptosis) on non-carcinoma prostate epithelial RWPE-1 cells", "setting": "[3]", "value": "no effect"}, {"measurement": "colony forming ability of PCa cells", "setting": "[4]", "value": "inhibited"}]}
